Laboratory results taken from patent publication US20250360091A1, “COMBINATION OF SGLT2 INHIBITOR AND MENTHOL AND USE THEREOF IN TREATMENT OF HEART DISEASE” (EAST CHINA UNIVERSITY OF SCIENCE AND TECHNOLOGY, priority 2023, published 2025).

Tests used:
[1] = tested on: intracellular calcium concentration; test: Intracellular calcium ion concentration with calcium probe Fluo4-AM (Example 5); assay type: cell-based; conditions: cariporide 100 μM, empagliflozin 50 μM, menthol 200 μM, combination 50 μM + 200 μM
Source text: Intracellular calcium overload is an important factor in the transition of myocardial cells from reversible to irreversible damage. Intracellular calcium overload can be seen in a variety of cardiac pathological states, such as cardiac remodeling, myocardial ischemia-reperfusion injury, viral myocarditis, dilated cardiomyopathy, arrhythmias, and congestive heart failure. […] Empagliflozin can act on the sodium-hydrogen exchanger 1 (NHE1) on the myocardial cell membrane. When myocardial ischemia occurs, myocardial cell energy metabolism is impaired, and myocardial cells switch from fatty acid metabolism to sugar-free glycolysis, producing a large amount of lactic acid, which reduces the intracellular pH. As a regulatory protein for cell pH homeostasis, NHE1 can transport H^+ out of the cell by exchanging extracellular sodium ions, resulting in an increase in the intracellular sodium ion concentration. […] When mitochondrial function is impaired, the release of ROS increases, and ROS can further stimulate L-type calcium channels, promoting Ca^2+ influx, creating a vicious cycle. Empagliflozin inhibits the activity of NHE1 and can indirectly reduce the intracellular calcium ion concentration. Menthol, as an L-type calcium channel blocker, can synergistically reduce the intracellular calcium ion concentration with empagliflozin, playing a synergistic role. In order to verify this synergistic mechanism, the intracellular calcium ion concentration was detected using the calcium ion probe Fluo4-AM.
The experiment was divided into 5 groups, including control group (no drug group), cariporide group (positive control group, 100 μM), EMPA-50 (empagliflozin, 50 μM), M-200 (menthol, 200 μM), and E50+M200 (combination of 50 μM empagliflozin and 200 μM menthol).
• (1) Take an appropriate amount of Fluo4-AM stock solution (2 mM, BeyoTime, S1060) and dilute it to a 10 μM working solution with HBSS; • (2) For the cells to be tested (covering the bottom of the dish), remove the culture medium and wash with HBSS three times; • (3) Add 25 μL of Fluo4-AM working solution to each well, and then add 25 μL of compound solution to each well; • (4) Incubate at 37° C. for 30 min for fluorescent probe loading; • (5) Wash three times with HBSS, and add 100 μL of HBSS containing 10 mM CaCl2) to each well. Detect quantitatively the fluorescence of Fluo4-AM using a multifunctional fluorescence microplate reader (excitation wavelength 488 nm, emission wavelength 520 nm) to determine the changes in intracellular calcium ions.
Since empagliflozin indirectly affects intracellular calcium concentration by inhibiting NHE1, the intracellular environment was made acidic by using ammonium chloride solution to simulate the environment during myocardial ischemia, and the effect of the administered composition on intracellular calcium ions was tested. The NHE1 inhibitor cariporide was used as a positive control. The above step (3) was changed to add 25 μL of Fluo4-AM working solution to each well, mix the test compound with 80 mM NH4Cl solution at a 1:1 ratio, and then add 25 μL mixed solution of the compound and NH4Cl to each well (the final concentration of NH4Cl was 20 mM), and the remaining steps were the same as above.

[2] = tested on: Rat cardiomyocytes (H9c2); test: GD-induced myocardial cell damage model, CCK-8, SGLT2 inhibitors with L-menthol (Example 9); assay type: cell-based; conditions: single drugs: SGLT2 inhibitor 50 μM or menthol 200 μM; GD 36-48 h; untreated group 54.7%
Description: In this example, the protective effect of the drug composition on myocardial cells was evaluated by using a GD-induced myocardial cell damage model. […] Rat cardiomyocytes (H9c2) were purchased from the Chinese Academy of Sciences Stem Cell Bank. The cardiomyocytes were cultured in high-glucose DMEM medium (Gibco, 11995-065) containing 10% fetal bovine serum and 1% penicillin/streptomycin, and incubated in a 37° C., 5% CO2 incubator. […] When the cells reached confluence, the DMEM medium was removed, and the cells were washed once with PBS. […] The synergistic coefficient was calculated using the Zero interaction dose model, with the formula: CI=(EAB−EA*EB)/(EA+EB−EA*EB), wherein CI is the synergistic effect index, EAB is the efficacy index of the combination of drugs, and EA and EB are the efficacy indices of the individual drugs, respectively.

H9c2 cells = test: Oil Red O staining of palmitic acid-induced lipid accumulation (Example 6); assay type: cell-based, Rat; conditions: used alone: EMPA 50 or 100 μM, MEN 200 μM; 24 h after 200 μM palmitic acid 48 h
Description: 1. Oil Red O staining. H9c2 cells were seeded in 12-well plates (1×10^5 cells per well) and cultured to 80-90% confluence. The cells were incubated with lipid medium containing 200 μM palmitic acid (Sigma-Aldrich, P0500) for 48 h to induce lipid droplet accumulation. The lipid medium was removed, and the cells were cultured for 24 h with medium containing 50 μM EMPA (E50, EMPA-50), 100 μM EMPA (E100), 200 μM MEN (M200), and 50 μM EMPA+200 μM MEN (E50+M200) but without palmitic acid. After the incubation, the cells were stained with Oil Red. The cells were washed 3 times with PBS and fixed with 4% paraformaldehyde at room temperature for 30 min. They were washed again with PBS 3 times and incubated with Oil Red O working solution at room temperature for 30 min. After rinsing with PBS 3 times, the cells were imaged under a microscope. The red area (positive area of lipid accumulation) was measured using Image J software package. The experiment was divided into 6 groups, black group (blank group, not treated with lipid medium and drugs), control group (control group, treated with lipid medium but not treated with drugs), E50 group (treated with lipid medium and then 50 μM EMPA), E100 (treated with lipid medium and then 100 μM EMPA), M200 (treated with lipid medium and then 200 μM menthol), E50+M200 (treated with lipid medium and then 50 μM empagliflozin+200 μM menthol).

[3] = NH4Cl present (20 mM, acidic intracellular conditions)

| Structure (SMILES) | effect on intracellular calcium concentration (Fluo4-AM fluorescence) [1, 3] | effect on intracellular calcium concentration (Fluo4-AM fluorescence) ([1]; absence of NH4Cl) | cell survival rate [2] | lipid accumulation in cardiomyocytes (Oil Red O staining area) (H9c2 cells) |
| --- | --- | --- | --- | --- |
| OC[C@H]1O[C@@H](c2ccc(Cl)c(Cc3ccc(O[C@H]4CCOC4)cc3)c2)[C@H](O)[C@@H](O)[C@@H]1O [empagliflozin] | significantly reduce intracellular calcium concentration | almost no effect | 64.5% | significantly reduce lipid accumulation |
| CC(C)[C@@H]1CC[C@@H](C)C[C@H]1O [menthol, L-menthol] | weak effect of reducing intracellular calcium concentration | weak inhibitory effect | 56.7% | significantly reduce lipid accumulation |
